# Results: publication PMC8243516, “Inhibition of lysosomal phospholipase A2 predicts drug-induced phospholipidosis” (Journal of Lipid Research, 2021)
# Where two headings read alike, the source gives them in different places.
# Legend:
# LPLA2 = molecular target: T1, LPLA2 (Mus musculus, UniProt Q8VEB4); assay: LPLA2 thermal stability measurement (SYPRO Orange Tm); assay type: binding
# T1 construct: purchased Proteos Inc. (Kalamazoo, MI)
# T1 sequence (Q8VEB4 34-412): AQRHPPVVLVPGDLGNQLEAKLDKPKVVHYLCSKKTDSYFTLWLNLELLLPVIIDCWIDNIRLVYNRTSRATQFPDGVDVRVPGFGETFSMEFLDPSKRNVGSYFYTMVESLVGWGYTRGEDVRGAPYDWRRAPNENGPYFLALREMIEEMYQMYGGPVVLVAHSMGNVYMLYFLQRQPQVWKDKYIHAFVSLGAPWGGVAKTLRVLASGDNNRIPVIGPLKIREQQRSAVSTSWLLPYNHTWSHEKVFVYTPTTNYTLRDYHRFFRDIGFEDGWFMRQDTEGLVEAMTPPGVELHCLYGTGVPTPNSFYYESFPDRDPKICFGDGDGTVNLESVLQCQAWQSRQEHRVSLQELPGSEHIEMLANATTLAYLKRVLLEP
# [1] = molecular target: T2, recombinant mouse LPLA2 (PLA2G15) (Mus musculus, UniProt Q8VEB4); assay: Transacylase activity of LPLA2 (1-O-acyl-N-acetylsphingosine synthase, cell-free liposome assay); assay type: biochemical
# T2 construct: purchased Proteos Inc. (Kalamazoo, MI)
# T2 sequence (Q8VEB4 34-412): T1 sequence (Q8VEB4 34-412)
# [2] = cited from earlier work
# [3] = LPLA2 dependent 1-O-acyl N-acetylsphingosine synthase activity, read-out: LPLA2 IC50
# [4] = ref Pubchem and chEMBL database
# [5] = 1-O-acyl N-acetylsphingosine synthase activity, pH 4.5, DOPC/sulfatide liposomes, read-out: LPLA2 IC50
# [6] = ref Pubchem and chEMBL databases
Compound,"(ΔTm)c-(ΔTm)d, difference in melting temperature of LPLA2 alone or in the presence of drug (LPLA2; N=3 ± SD)","IC50 [1, 5]","pKa (basic) [2, 6]",further results
OC[C@H]1OC(O)[C@H](O)[C@@H](O)[C@@H]1O (mixture of isomers) [D-( ± )-glucose],0 °C,–,–,–
Cl.NCCc1ccc(O)c(O)c1 [3-Hydroxy-tyramine hydrochloride],–,–,–,"IC50 [1, 3]: 56.1 µM; pKa (basic) [2, 4]: 9.27"
NCCc1cc(O)c(O)cc1O [6-Hydroxy-dopamine],–,–,–,"IC50 [1, 3]: 88 µM; pKa (basic) [2, 4]: 9.85"
"Nc1c(Br)cc(Br)cc1CN[C@H]1CC[C@H](O)CC1 [Ambroxol, 2-amino-3,5-dibromo-N-(trans-4-hydroxycyclohexyl) benzylamine]",0.68 ± 0.5 °C,59 µM,9.01,–
"CC(C)(C#N)c1cc(Cn2cncn2)cc(C(C)(C)C#N)c1 [Anastrozole, 2;2″-[5-(1H-1;2;4-Triazol-1-ylmethyl)-1,3-phenylene]bis(2-methyl-propiononitrile)]",-1.05 ± 0.1 °C,4.82 µM,2,–
CN1[C@@H]2CC[C@H]1C[C@@H](OC(=O)C(CO)c1ccccc1)C2 (some centres unmarked) [Atropine],–,–,–,IC50 ([1]; LPLA2 IC50): 1870 µM
"CC(Cc1cccc(C(F)(F)F)c1)NCCOC(=O)c1ccccc1 (centres unmarked) [Benfluorex, N-(1-methyl-2-(3-[trifluoromethyl]-phenyl)ethyl)amino ethanol benzoate ester]",–,19.9 µM,9.14,–
CN1[C@@H]2CC[C@H]1C[C@@H](OC(c1ccccc1)c1ccccc1)C2 [Benztropine],–,–,–,"pKa (basic) [2, 4]: 9.54"
"CC(C)(C)c1ccc(CN2CCN(C(c3ccccc3)c3ccc(Cl)cc3)CC2)cc1 (centres unmarked) [Buclizine, 1-((4-chlorophenyl)phenylmethyl)-4-((4-(1,1-dimethylethyl)phenyl)methyl)piperazine]",0.63 ± 0.1 °C,9.13 µM,8.04,–
"C(=Cc1ccccc1)CN1CCN(C(c2ccccc2)c2ccccc2)CC1 [Cinnarizine, 1-(diphenylmethyl)-4-(3-phenylprop-2-en-1-yl) piperazine]",–,–,8.44,–
CCN(CC)CCOc1ccc(C(=C(Cl)c2ccccc2)c2ccccc2)cc1 [Clomifene],–,–,–,"pKa (basic) [2, 4]: 9.31"
O=C(O)Cc1ccccc1Nc1c(Cl)cccc1Cl [Diclofenac],1.70 ± 0.5 °C,–,–,"IC50 [1, 3]: 7.2 µM"
CC(C)N(CCC(C(N)=O)(c1ccccc1)c1ccccn1)C(C)C (centres unmarked) [Disopyramide],–,–,–,"(ΔTm)c-(ΔTm)d, difference in melting temperature of LPLA2 alone or in the presence of drug (LPLA2): 0 °C"
"CC[C@H]1OC(=O)[C@H](C)[C@@H](O[C@H]2C[C@@](C)(OC)[C@@H](O)[C@H](C)O2)[C@H](C)[C@@H](O[C@@H]2O[C@H](C)C[C@H](N(C)C)[C@H]2O)[C@](C)(O)C[C@@H](C)C(=O)[C@H](C)[C@@H](O)[C@]1(C)O [Erythromycin, (3R,4S,5S,6R,7R,9R,11R,12R,13S,14R)-6-{[(2S,3R,4S,6R)-4-(dimethylamino)-3-hydroxy-6-methyloxan-2-yl]oxy}-14-ethyl-7,12,13-trihydroxy-4-{[(2R,4R,5S,6S)-5-hydroxy-4-methoxy-4,6-dimethyloxan-2-yl]oxy}-3,5,7,9,11,13-hexamethyl-1-oxacyclotetradecane-2,10-dione]",-0.48 ± 0.4 °C,117 µM,8.38,–
"CC(C)OC(=O)C(C)(C)Oc1ccc(C(=O)c2ccc(Cl)cc2)cc1 [Fenofibrate, 2-[4-(4-chlorobenzoyl)phenoxy]-2-methylpropanoic acid isopropyl ester]",0.44 ± 0.7 °C,2.25 µM,-4.9,–
"Fc1ccc(C(c2ccc(F)cc2)N2CCN(C/C=C/c3ccccc3)CC2)cc1 [Flunarizine, 1-[bis(4-fluorophenyl)methyl]-4-[(2E)-3-phenylprop-2-en-1-yl]piperazine]",–,–,7.6,–
NCC1(CC(=O)O)CCCCC1 [Gabapentin],–,–,–,"IC50 [1, 3]: 37.4 µM; pKa (basic) [2, 4]: 9.91"
COc1ccc2c(c1)[nH]c1c(C)nccc12 [Harmine],-1.94 ± 0.9 °C,–,–,"IC50 ([1]; LPLA2 IC50, LPLA2 dependent 1-O-acyl N-acetylsphingosine synthase activity): 633 µM"
C[C@]12CCC(=O)C=C1CC[C@@H]1[C@@H]2[C@@H](O)C[C@@]2(C)[C@H]1CC[C@]2(O)C(=O)CO [Hydrocortisone],1.11 ± 0.1 °C,–,–,"IC50 [1, 3]: 402 µM; pKa (basic) [2, 4]: -2.8"

Compound,"(ΔTm)c-(ΔTm)d, difference in melting temperature of LPLA2 alone or in the presence of drug (LPLA2; N=3 ± SD)","IC50 [1, 5]","pKa (basic) [2, 6]",further results
"CN(C)C(=O)C(CCN1CCC(O)(c2ccc(Cl)cc2)CC1)(c1ccccc1)c1ccccc1 [Loperamide, 4-[4-(4-chlorophenyl)-4-hydroxypiperidin-1-yl]-N,N-dimethyl-2,2-diphenylbutanamide]",–,–,9.41,–
"CCN(CCCCOC(=O)c1ccc(OC)c(OC)c1)C(C)Cc1ccc(OC)cc1 (centres unmarked) [Mebeverine, 4-{ethyl[1-(4-methoxyphenyl)propan-2-yl]amino}butyl 3,4-dimethoxybenzoate]",-0.05 ± 0.5 °C,417 µM,10.31,–
"CC#C[C@]1(O)CC[C@H]2[C@@H]3CCC4=CC(=O)CCC4=C3[C@@H](c3ccc(N(C)C)cc3)C[C@@]21C [Mifepristone, (1S,3aS,3bS,10R,11aS)-10-[4-(dimethylamino)phenyl]-1-hydroxy-11a-methyl-1-(prop-1-yn-1-yl)-1H,2H,3H,3aH, 3bH,4H,5H,7H,8H, 9H,10H,11H,11aH-cyclopenta[a]phenanthren-7-one]",–,27.7 µM,4.89,"(ΔTm)c-(ΔTm)d, difference in melting temperature of LPLA2 alone or in the presence of drug (LPLA2): 0.20 ± 0.0 °C"
Cc1ccccc1C(OCCN(C)C)c1ccccc1 (centres unmarked) [Orphenadrine],–,–,–,"pKa (basic) [2, 4]: 8.87"
CN1CCN(CCCN2c3ccccc3Sc3ccc(Cl)cc32)CC1 [Prochlorperazine],–,–,–,"pKa (basic) [2, 4]: 8.39"
OC(CCN1CCCC1)(c1ccccc1)C1CCCCC1 (centres unmarked) [Procyclidine],0.51 ± 0.0 °C,–,–,"pKa (basic) [2, 4]: 13.84"
"CCN(CC)C(C)CN1c2ccccc2Sc2ccccc21 (centres unmarked) [Profenamine, diethyl[1-(10H-phenothiazin-10-yl)propan-2-yl]amine]",–,8.7 µM,9.6,–
"CCCNCC(O)COc1ccccc1C(=O)CCc1ccccc1 (centres unmarked) [Propafenone, 1-{2-[2-hydroxy-3-(propylamino)propoxy]phenyl}-3-phenylpropan-1-one]",–,48.2 µM,–,–
CSC(=N)N [S-methylisothiourea],-2.05 ± 0.6 °C,–,–,–
"Cc1ccc(C(=O)Nc2ccc(S(=O)(=O)O)c3cc(S(=O)(=O)O)cc(S(=O)(=O)O)c23)cc1NC(=O)c1cccc(NC(=O)Nc2cccc(C(=O)Nc3cc(C(=O)Nc4ccc(S(=O)(=O)O)c5cc(S(=O)(=O)O)cc(S(=O)(=O)O)c45)ccc3C)c2)c1 [Suramin, 8-{4-methyl-3-[3-({[3-({2-methyl-5-[(4,6,8-trisulfonaphthalen-1yl)carbamoyl]phenyl}carbamoyl)phenyl]carbamoyl}amino)benzamido]benzamido}naphthalene-1,3,5-trisulfonic acid]",0 °C,35.5 µM,–,–
"CSc1ccc2c(c1)N(CCC1CCCCN1C)c1ccccc1S2 (centres unmarked) [Thioridazine, 10-[2-(1-methylpiperidin-2-yl)ethyl]-2-(methylsulfanyl) -10H-phenothiazine]",–,–,8.93,–
O=c1ccn([C@@H]2O[C@H](CO)[C@@H](O)[C@H]2O)c(=O)[nH]1 [Uridine],–,–,–,"pKa (basic) [2, 4]: -3"
"CC[C@]1(O)C[C@@H]2CN(CCc3c([nH]c4ccccc34)[C@@](C(=O)OC)(c3cc4c(cc3OC)N(C)[C@H]3[C@@](O)(C(=O)OC)[C@H](OC(C)=O)[C@]5(CC)C=CCN6CC[C@]43[C@@H]65)C2)C1 [Vinblastine, methyl (1R,9R,10S,11R,12R,19R)-11-(acetyloxy)-12-ethyl-4-[(13S,15R,17S)-17-ethyl-17-hydroxy-13-(methoxycarbonyl)-1,11-diazatetracyclo [13.3.1.0ˆ[1].0ˆ[1]]nonadeca-4(12),5(10),6,8-tetraen-13-yl]-10-hydroxy-5-methoxy-8-methyl-8,16-diazapentacyclo [10.6.1.0ˆ[1].0ˆ[1] .0ˆ[3]] nonadeca-2,4,6,13-tetraene-10-carboxylate]",-0.24 ± 0.0 °C,2120 µM,–,LPLA2 inhibition (in words) ([1]; acyl transferase activity): millimolar concentrations
O=C1C(O)=C([C@H]2CC[C@H](c3ccc(Cl)cc3)CC2)C(=O)c2ccccc21 [atovaquone],-0.17 ± 0.1 °C,–,–,–
CC(C)COCC(CN(Cc1ccccc1)c1ccccc1)N1CCCC1 (centres unmarked) [bepridil],2.10 ± 0.6 °C,–,–,–
CC(C)C[C@H](N)C(=O)O [l-leucine],1.86 ± 0.6 °C,–,–,–
CN1CCc2c(c3ccccc3n2Cc2ccccc2)C1 [mebhydroline],0.84 ± 0.1 °C,–,–,–
CCN(CC)CCc1nc(-c2ccccc2)no1 [oxolamine],-0.89 ± 0.0 °C,–,–,–
O=c1ccn([C@@H]2O[C@H](CO)[C@@H](O)[C@H]2O)c(=O)[nH]1 [uridine],-1.71 ± 0.1 °C,–,–,–
